The results in this text go back to US10857122B2, “Hypoestoxide, derivatives, related compounds, and agonists thereof for treatment or prevention of neurodegenerative diseases” (Immune Modulation, Inc., priority 2015, dated 2020).

The subject of test [1] is α-synuclein. In words: Immunoblot analysis of α-synuclein in SDS-soluble and SDS-insoluble brain homogenate fractions. The format is in vivo. The following applies: brain homogenates of α-syn-tg mice; 5 mg/kg IP daily for four weeks. Here is the method: (§1) Five-month-old non-tg and α-syn-tg female mice were injected intra-peritoneally (IP) with either vehicle (40% captisol) or 5 mg/kg of hypoestoxide daily for four weeks. The right hemibrains were post-fixed in phosphate-buffered 4% PFA at 4° C. for neuropathological analysis, while the left hemibrains were snap-frozen and stored at −70° C. for subsequent protein and mRNA analysis.
(§2) Brain homogenates were prepared in the lysis buffer to separate SDS-soluble and SDS-insoluble fractions. Chemiluminescence detection and analysis were performed using Versadoc XL imaging apparatus and Quantity One (Bio-rad, Hercules, Calif.).
FIGS. 3F-3G show the results of a biochemical analysis. Brain homogenates were separated into SDS-soluble and SDS-insoluble factions, and analyzed by immunoblot analysis. The levels of α-synuclein in SDS-soluble fractions from α-syn tg mice were not affected by HE administration. […] A positive interactive effect of HE treatment on the level of SDS-insoluble α-synuclein (Finteraction (1, 16)=8.68, p=0.0095) was confirmed by two-way ANOVA.

In test [2] the test system is α-syn-tg mice. As to the kind of experiment: Quantitative gene expression analysis (qPCR) of pro-inflammatory cytokines. The settings on record: neocortex of α-syn-tg mice; 5 mg/kg IP daily for four weeks. The format is in vivo. Here is the method:
as §1
(§3) Total mRNA was extracted from mice frontal cortex using RNeasy Lipid mini kit (Qiagen, Germantown, Md.) and reverse transcribed using SuperScript VILO cDNA synthesis kit (Life Technologies), respectively. Quantitative real-time PCR was performed using TaqMan® Fast Advanced Master Mix (Life Technologies) according to manufacturer's instructions with gene specific primers obtained from Life Technologies, such as TNFα (Mm00443258_m1), IL6 (Mm00446190_m1), IL-1β (Mm00434228_m1), and β-actin (Mm00607939_s1). Amplification of DNA products was measured by the StepOnePlus real-time PCR system (Applied Biosystems, Carlsbad, Calif.). Relative mRNA levels were calculated according to the 2-exp (ΔΔCt) method. All ΔCT values were normalized to β-actin.
(§4) The levels of pro-inflammatory cytokines were analyzed using immunohistochemical analysis and gene expression analysis. The levels of TNFα, IL-1ß and IL6 were increased in α-syn-tg mice compared to non-tg mice. […] A positive interactive effect of HE treatment on the levels of TNFα (Finteraction (1, 16)=12.34, p=0.0029), IL-1β (Finteraction (1, 16)=11.58, p=0.0036), and IL6 (Finteraction (1, 16)=31.06, p<0.0001) was confirmed by two-way ANOVA. […] A positive interactive effect of HE treatment on the mRNA levels of TNFα (Finteraction (1, 16)=15.78, p=0.0019), IL-1β (Finteraction (1, 16)=11.65, p=0.0051), and IL6 (Finteraction (1, 16)=6.40, p=0.0264) was confirmed by two-way ANOVA.

In test [3] the test system is α-syn-tg mice. As to the kind of experiment: Immunohistochemical analysis of pro-inflammatory cytokines in a mouse model of PD. The following applies: neocortex of α-syn-tg mice; 5 mg/kg IP daily for four weeks. In kind it is in vivo. Here is the method: as §1
(§5) Blind-coded sagittal brain sections were incubated with primary antibodies at 4° C. for overnight. The next day, sections were incubated with either biotinylated- or FITC-conjugated secondary antibodies and detected with avid in D-HRP HRP (ABC elite, Vector Laboratories, Burlingame, Calif.) and with Tyramide Signal Amplification Direct system (PerkinElmer, Waltham, Mass.), respectively.
(§6) To determine the neuroinflammation, neurodegeneration, accumulation of α-synuclein, and NF-κB activation, brain sections were stained with Iba-1, GFAP, TNFα, IL-1β, IL6, human α-synuclein, NF-κB, and phosphorylated-NF-κB antibodies, respectively. Sections were imaged by Olympus BX41 microscope. All immunoreactivity levels were determined by optical density analysis using Image Quant 1.43 program (NIH) except the immunoreactivity of Iba-1. The cell numbers of Iba-1-positive cells were determined per field (230 μm×184 μm) of each animal based on cell body recognition using Image Quant 1.43 program (NIH).
as §4

The test system of the next test is α-synuclein mRNA. As to the kind of experiment: α-synuclein mRNA levels. The format is in vivo, mice. The following applies: model of PD. Here is the method:
as §1, §3
Intraneuronal accumulations of α-synuclein aggregates are typical pathological features of PD. […]

Test [4] has as its system α-syn-tg mice. As to the kind of experiment: Immunohistochemical analysis of brain immune cells (Iba-1 microglia, GFAP astrocytes) in a mouse model of PD. The format is in vivo. The following applies: 5 mg/kg IP daily for four weeks. Here is the method:
as §1, §5, §6
FIGS. 1A-1F show analysis of the numbers of brain immune cells.
A positive interactive effect of HE treatment on Iba-1 optical density (Finteraction (1, 16)=80.48, p<0.0001), numbers of microglia branches (Finteraction (1, 16)=83.25, p<0.0001), GFAP optical density (Finteraction (1, 16)=15.88, p=0.0011), and numbers of astroglial branches (Finteraction (1, 16)=4.04, p=0.0616) was confirmed by two-way ANOVA.

The test system of test [5] is α-syn-tg mice. As to the kind of experiment: Neurodegeneration analysis (TH-positive striatal fibers). The format is in vivo. The following applies: 5 mg/kg IP daily for four weeks. Here is the method: as §1, §5
as §6, with “(NIH). […]” for “(NIH).”

The subject of test [6] is α-syn-tg mice. In words: Open field and round beam behavioral tests. In kind it is in vivo. The following applies: 5 mg/kg IP daily for four weeks. Here is the method: as §1
Following treatment, the mice were assessed for gait and coordination using the open field and the round beam tests. Total activity was calculated as total beam breaks in ten minutes. The impairment of gait and balance were assessed by round beam analysis. Three consecutive trials of one minute each were run in one day. The numbers of foot slippages and distance traveled were recorded. The total errors on the beam were calculated as foot slips/distance traveled.
A positive interactive effect of HE treatment on the beam break numbers (Finteraction (1, 16)=15.61, p=0.0011) and total round beam errors (Finteraction (1, 16)=8.58, p=0.0098) was confirmed by two-way ANOVA.

The subject of test [7] is α-synuclein. As to the kind of experiment: Immunohistochemical and immunofluorescence analysis of α-synuclein accumulation in brain sections. In kind it is in vivo, mice. The following applies: 5 mg/kg IP daily for four weeks. Here is the method:
as §1, §5, §6
To determine whether the behavioral improvements observed in the α-syn-tg mice were related to alterations of α-synuclein pathology, immunohistochemical analysis was performed for α-synuclein with brain sections from non-tg and α-syn-tg mice treated with either vehicle or HE. […]
Immunofluorescence analysis of human α-synuclein in the frontal cortex of non-tg and α-syn-tg mice treated with either vehicle or hypoestoxide was performed. […] Additionally, fluorescence intensity against human α-synuclein was analyzed in frontal cortex of the brains. Immunoreactivity against human α-synuclein was not detected in the frontal cortex of non-tg mice, but it was highly detected in the frontal cortex of α-syn-tg mice. […]

The test system of test [8] is NF-κB. In words: Immunofluorescence analysis of NF-κB and phosphorylated-NF-κB in neocortex. The following applies: 5 mg/kg IP daily for four weeks. The format is in vivo, mice. Here is the method: as §1, §5
as §6, with “(NIH). […]” for “(NIH).”

The subject of test [9] is NF-κB. In words: Western blot analysis of NF-κB in cytosolic and nuclear fractions of cortex homogenates. The format is in vivo, mice. The following applies: 5 mg/kg IP daily for four weeks. Here is the method:
as §1, §2
Biochemical analysis using brain homogenates from the cortex of non-tg and α-syn-tg mice was performed. Brain homogenates were separated into cytosolic and nuclear fractions by centrifugation, and each fraction was analyzed by western blot analysis. Total levels of NF-κB were not altered by HE administration in non-tg and α-syn-tg mice. […] A positive interactive effect of HE treatment on the level of phosphorylated-NF-κB (Finteraction (1, 16)=11.55, p=0.0037) was confirmed by two-way ANOVA.

The mark [10] stands for this setting: frontal cortex of α-syn-tg mice.

Take `C=C1C(=O)C[C@H]2C[C@@H]3O[C@@]3(C)CC[C@@H]3O[C@@]3(C)C[C@@H](OC(C)=O)[C@H]1C2(C)C` [HE, hypoestoxide]: in the test on α-synuclein [1], the “levels of SDS-insoluble α-synuclein” value was “significantly decreased” and the “levels of α-synuclein in SDS-soluble fractions” value is “not affected”. For the same compound, in the test on α-syn-tg mice [2], the “mRNA level of IL6” value was “clearly decreased”, the “mRNA level of IL-1β” value is “clearly decreased” and the “mRNA level of TNFα” value is “clearly decreased”. In the test with α-syn-tg mice [3], the “level of IL6 (immunohistochemical analysis)” value is listed as “significantly reduced”, the “level of IL-1β (immunohistochemical analysis)” value is “significantly reduced” and the “level of TNFα (immunohistochemical analysis)” value was “significantly reduced”. For the same compound, the “levels of α-synuclein mRNA” value in the test on α-synuclein mRNA is given as “not affected”. In addition, in the test on α-syn-tg mice [4] (neocortex of α-syn-tg mice), the “levels of astrogliosis (GFAP)” value was “significantly decreased” and the “numbers of microglial cells (Iba-1-positive)” value was “significantly decreased”. Further, the “numbers of branches per glial cell” value with α-syn-tg mice [4] (α-syn-tg mice) is on record as “decreased”. Moreover, the “loss of TH-positive striatal fibers” value with α-syn-tg mice [5] was “significantly decreased”. In the test on α-syn-tg mice [6], the “beam break numbers (open field test)” value is “reduced these errors to levels observed in non-tg mice” and the “total round beam errors” value is “reduced these errors to levels observed in non-tg mice”. In the test on α-synuclein [7] (setting [10]), the “immunoreactivity against C-terminus human α-synuclein” value is “significantly decreased” and the “level of human α-synuclein immunoreactivity (immunofluorescence)” value is on record as “significantly decreased”. The “levels of α-synuclein in neurons and neuropil (immunohistochemical analysis)” value in the test with α-synuclein [7] (α-syn-tg mice, frontal cortex, hippocampus, striatum) is on record as “significantly decreased”. For the same compound, the “total levels of NF-κB (immunofluorescence)” value with NF-κB [8] (neocortex of non-tg or α-syn-tg mice) is “not changed”. Besides, the “level of phosphorylated-NF-κB (immunofluorescence)” value with NF-κB [8] (neocortex of α-syn-tg mice) is “significantly decreased”. The “total levels of NF-κB (western blot)” value with NF-κB [9] (cortex homogenates of non-tg and α-syn-tg mice) is listed as “not altered”. The “level of phosphorylated NF-κB (western blot)” value in the test with NF-κB [9] (cortex homogenates of α-syn-tg mice, nuclear fractions) is on record as “significantly reduced”.
